The target of test [1] is T1, human CB1 receptor (Homo sapiens, UniProt P21554).
T1 construct: expressed in transfected cells; host or cells: HEK293
The test is described as follows: bioSensAll GAPL-Gi2 BRET biosensor assay (antagonism of CP-55,940). In kind it is cell-based. The settings on record: HEK293 cells transfected with hCB1 and GAPL-Gi2 biosensor, EC75 of CP-55,940 (0.1 nM), overnight incubation, read-out: CB1 wt Gi2 IC50. Here is the method: (§1) Using polyethylenimine (PEI) transfection agent, HEK293 cells were transfected in suspension with the human CB1 or CB1b receptor and one of the following bioSensAll® assays: GAPL-Gi2, or β-arrestin plasma membrane (PM) translocation biosensor (+GRK2). Cells were directly seeded in 96-well plates immediately following transfection.
(§2) Cells were incubated with coelenterazine (luciferase substrate) and different test compounds prior to the measurement of BRET signals.
i) GAPL sensors are used to monitor the activation of heterotrimeric G proteins at the plasma membrane upon receptor stimulation. Specifically, these multimolecular BRET sensors detect the plasma membrane recruitment of proteins that interact with active Ga subunits in a G protein family-selective manner. G protein activation following receptor stimulation generally leads to an increase in the BRET signal.
(§3) HEK293 cells were maintained in Dulbecco's Modified Eagle Medium (DMEM) (Wisent; cat #319-030-CL: without sodium pyruvate, with 4.5 g/L glucose, without L-glutamine) supplemented with 1% penicillin-streptomycin (Wisent; cat #450-201-EL) and 2 or 10% fetal bovine serum (Wisent cat #090150).
(§4) HEK293 cells were co-transfected with hCB1 or hCB1b and one of the above-listed bioSensAll® assays. For each transfection condition: • the total amount of transfected DNA was kept constant at 1 μg per mL of cell culture to be transfected; whenever necessary, salmon sperm DNA (Invitrogen, cat #15632011) was used as ‘carrier’ DNA to supplement plasmid DNA (i.e., biosensor and receptor); • the PEI (polyethylenimine 25 kDa linear, PolyScience, cat #23966) to DNA ratio (ug:ug) was fixed at 3:1.
(§5) Transfections were carried out as follows: • DNA and PEI were first diluted separately in 150 mM NaCl. The volume of the diluent in each tube corresponds to 5% of the cell culture volume to be transfected. • Once DNA and PEI were diluted, the PEI-containing solution was added to the DNA solution and the DNA/PEI mixture immediately vortexed for 5 seconds. • The DNA/PEI mixture was incubated for at least 20 minutes at room temperature to allow for the formation of DNA/PEI complexes. • During the incubation, HEK293 cells were detached, counted and re-suspended in culture medium (composition specified above). • At the end of the incubation period, the DNA/PEI mixture was added to the cells. • Cells were finally distributed in 96-well plates (White Opaque 96-well/Microplates, Greiner, cat #655083 or CulturPlate-96, White Opaque 96-well Microplate, PerkinElmer, cat #6005688) at a density of 30 000 cells per well.
(§6) At ˜48 hours post-transfection: • Using 450-Select TS Biotek plate washer, culture medium was aspirated and replaced with 100 μl of Hank's Balanced Salt Solution buffer (HBSS) (Wisent, cat #319-067CL: without red phenol; with sodium bicarbonate, with calcium and magnesium, with HEPES) per well. This process was performed a total of two times (i.e., 2 washes). • After the washing step, the HP D300 digital dispenser (Tecan) was used to inject increasing doses (12) of test compounds (ranging from 0-600 nM) to wells. Three to five minutes later, an EC75 of CP-55,940 (0.1 nM for GAPL-Gi2 assay; 100 nM for β-arrestin PM translocation biosensor (+GRK2)) was added to columns 2-12 of each 96-well plate.
(§7) BRET signals were determined by calculating the ratio of light emitted by GFP-acceptor (515 nm) over light emitted by luciferase-donor (400 nm). All BRET ratios were standardized using the equation below with pre-established BRET values for positive and negative controls. The standardized BRET ratio is referred to as universal BRET (uBRET).
(§8) Resulting dose-response curves were fitted using the four-parameter logistic non-linear regression model in GraphPad Prism 9.
(Bioluminescence resonance energy transfer reports proximity on the nanometre scale.)

Test [2] deals with T1, human CB1 receptor. The test is described as follows: bioSensAll β-arrestin plasma membrane translocation BRET biosensor (+GRK2) assay (antagonism of CP-55,940). In kind it is cell-based. The note with it: HEK293 cells transfected with hCB1 and β-arrestin PM translocation biosensor (+GRK2), EC75 of CP-55,940 (100 nM), overnight incubation, read-out: CB1 wt βarr2 IC50. Here is the method: as §1, §2
ii) The multimolecular β-arrestin membrane recruitment biosensors allow for real-time spatio-temporal monitoring of β-arrestin 1 and β-arrestin 2 following GPCR activation. Specifically, these β-arrestin sensors were designed to detect the recruitment of proteins to the plasma membrane (β-arrestin PM) with localization to compartment resulting in an increased BRET signal.
as §3, §4, §5, §6, §7, §8

T1 sequence (P21554 whole entry): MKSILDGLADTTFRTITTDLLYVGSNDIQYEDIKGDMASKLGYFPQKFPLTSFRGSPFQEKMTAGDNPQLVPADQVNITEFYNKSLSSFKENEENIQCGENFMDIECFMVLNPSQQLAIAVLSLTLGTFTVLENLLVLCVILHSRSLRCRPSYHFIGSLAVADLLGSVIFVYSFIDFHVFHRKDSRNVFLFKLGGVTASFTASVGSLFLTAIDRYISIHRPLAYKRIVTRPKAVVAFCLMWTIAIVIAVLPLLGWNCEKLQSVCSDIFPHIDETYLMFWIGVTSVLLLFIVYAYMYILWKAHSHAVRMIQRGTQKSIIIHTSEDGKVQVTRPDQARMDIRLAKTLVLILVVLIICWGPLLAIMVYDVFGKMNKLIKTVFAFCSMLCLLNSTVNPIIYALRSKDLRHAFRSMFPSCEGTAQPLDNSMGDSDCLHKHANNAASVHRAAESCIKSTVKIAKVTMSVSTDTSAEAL

Turning to `CCNC(=O)CN(C)c1cc(N2CCC(C)(C(N)=O)CC2)n2nc(-c3ccccc3Cl)c(-c3ccc(Cl)cc3)c2n1` [Compound 26, 1-[2-(2-chlorophenyl)-3-(4-chlorophenyl)-5-[[2-(ethylamino)-2-oxo-ethyl]-methyl-amino]pyrazolo[1,5-a]pyrimidin-7-yl]-4-methyl-piperidine-4-carboxamide], the IC50 amounted to 5.03 nM in test [1] and 30.5 nM in test [2].

Turning to `CC(=O)NC1(C)CCN(c2cc(N(C)CCC(N)=O)nc3c(-c4ccc(Cl)cc4)c(-c4ccccc4Cl)nn23)CC1` [Compound 27, 3-[[7-(4-acetamido-4-methyl-1-piperidyl)-2-(2-chlorophenyl)-3-(4-chlorophenyl)pyrazolo[1,5-a]pyrimidin-5-yl]-methyl-amino]propanamide], the values for the IC50 in test [1] and in test [2] were 1.28 nM and 4.69 nM, respectively.

For the compound `CN(CCC(N)=O)c1cc(N2CC[C@H](CC(N)=O)C2)n2nc(-c3ccccc3Cl)c(-c3ccc(Cl)cc3)c2n1` [Compound 28, 3-[[7-[(3R)-3-(2-amino-2-oxo-ethyl)pyrrolidin-1-yl]-2-(2-chlorophenyl)-3-(4-chlorophenyl)pyrazolo[1,5-a]pyrimidin-5-yl]-methyl-amino]propanamide], the IC50 in test [1] stood at 18.9 nM; in test [2], 93.9 nM.

Consider `CN(C)C(=O)CN(C)c1cc(N2CCC[C@@H](C(N)=O)C2)n2nc(-c3ccccc3Cl)c(-c3ccc(Cl)cc3)c2n1` [Compound 29, (3R)-1-[2-(2-chlorophenyl)-3-(4-chlorophenyl)-5-[[2-(dimethylamino)-2-oxo-ethyl]-methyl-amino]pyrazolo[1,5-a]pyrimidin-7-yl]piperidine-3-carboxamide], for which the IC50 in test [1] came to 34.8 nM; in test [2], 114 nM.

On to `CN(CP(C)(C)=O)c1cc(N2CC[C@H](CC(N)=O)C2)n2nc(-c3ccccc3Cl)c(-c3ccc(Cl)cc3)c2n1` [Compound 30, 2-[(3R)-1-[2-(2-chlorophenyl)-3-(4-chlorophenyl)-5-[dimethylphosphorylmethyl(methyl)amino]pyrazolo[1,5-a]pyrimidin-7-yl]pyrrolidin-3-yl]acetamide], for which the IC50 is 679 nM in test [1] and 198 nM in test [2].

Consider `CCNC(=O)CN(C)c1cc(N2CC(CC(N)=O)C2)n2nc(-c3ccccc3Cl)c(-c3ccc(Cl)cc3)c2n1` [Compound 31, 2-[1-[2-(2-chlorophenyl)-3-(4-chlorophenyl)-5-[[2-(ethylamino)-2-oxo-ethyl]-methyl-amino]pyrazolo[1,5-a]pyrimidin-7-yl]azetidin-3-yl]acetamide], for which the IC50 in test [1] turned out to be 114 nM; in test [2], 418 nM.

Consider `CN(C)C(=O)CN(C)c1cc(N2CC(CC(N)=O)C2)n2nc(-c3ccccc3Cl)c(-c3ccc(Cl)cc3)c2n1` [Compound 32, 2-[1-[2-(2-chlorophenyl)-3-(4-chlorophenyl)-5-[[2-(dimethylamino)-2-oxo-ethyl]-methyl-amino]pyrazolo[1,5-a]pyrimidin-7-yl]azetidin-3-yl]acetamide], for which the IC50 in test [1] was 584 nM; in test [2], above 10000 nM.

`CN(CP(C)(C)=O)c1cc(N2CC(CC(N)=O)C2)n2nc(-c3ccccc3Cl)c(-c3ccc(Cl)cc3)c2n1` [Compound 33, 2-[1-[2-(2-chlorophenyl)-3-(4-chlorophenyl)-5-[dimethylphosphorylmethyl(methyl)amino]pyrazolo[1,5-a]pyrimidin-7-yl]azetidin-3-yl]acetamide]: the results for the IC50 in test [1] and in test [2] were above 10000 nM and 116 nM, respectively.

For `CN(CP(C)(C)=O)c1cc(N2CCC[C@@H](C(N)=O)C2)n2nc(-c3ccccc3Cl)c(-c3ccc(Cl)cc3)c2n1` [Compound 34, (3R)-1-[2-(2-chlorophenyl)-3-(4-chlorophenyl)-5-[dimethylphosphorylmethyl(methyl)amino]pyrazolo[1,5-a]pyrimidin-7-yl]piperidine-3-carboxamide], the IC50 in test [1] is above 10000 nM; in test [2], 155 nM.

For `NC(=O)CC1CN(c2cc(N3CCC[C@H]3C(N)=O)nc3c(-c4ccc(Cl)cc4)c(-c4ccccc4Cl)nn23)C1` [Compound 35, (2S)-1-[7-[3-(2-amino-2-oxo-ethyl)azetidin-1-yl]-2-(2-chlorophenyl)-3-(4-chlorophenyl)pyrazolo[1,5-a]pyrimidin-5-yl]pyrrolidine-2-carboxamide], the IC50 was 158 nM in test [1] and above 10000 nM in test [2].

As for `CCNC(=O)CN(C)c1cc(N2CC[C@H](CC(N)=O)C2)n2nc(-c3ccccc3Cl)c(-c3ccc(Cl)cc3)c2n1` [Compound 36, 2-[(3R)-1-[2-(2-chlorophenyl)-3-(4-chlorophenyl)-5-[[2-(ethylamino)-2-oxo-ethyl]-methyl-amino]pyrazolo[1,5-a]pyrimidin-7-yl]pyrrolidin-3-yl]acetamide], the IC50 worked out at 150 nM in test [1] and 325 nM in test [2].

For `CC1(C(N)=O)CCN(c2cc(N3CCC[C@H]3C(N)=O)nc3c(-c4ccc(Cl)cc4)c(-c4ccccc4Cl)nn23)CC1` [Compound 37, 1-[5-[(2S)-2-carbamoylpyrrolidin-1-yl]-2-(2-chlorophenyl)-3-(4-chlorophenyl)pyrazolo[1,5-a]pyrimidin-7-yl]-4-methyl-piperidine-4-carboxamide], the IC50 in test [1] was found to be 5.91 nM; in test [2], 35.3 nM.

As for `CNC(=O)CCN(C)c1cc(N2CCC(C)(C(N)=O)CC2)n2nc(-c3ccccc3Cl)c(-c3ccc(Cl)cc3)c2n1` [Compound 38, 1-[2-(2-chlorophenyl)-3-(4-chlorophenyl)-5-[methyl-[3-(methylamino)-3-oxo-propyl]amino]pyrazolo[1,5-a]pyrimidin-7-yl]-4-methyl-piperidine-4-carboxamide], the results for the IC50 in test [1] and in test [2] were 2.48 nM and 10.9 nM, respectively.

In the case of `CNC(=O)CCN(C)c1cc(N2CC(CC(N)=O)C2)n2nc(-c3ccccc3Cl)c(-c3ccc(Cl)cc3)c2n1` [Compound 39, 3-[[7-[3-(2-amino-2-oxo-ethyl)azetidin-1-yl]-2-(2-chlorophenyl)-3-(4-chlorophenyl)pyrazolo[1,5-a]pyrimidin-5-yl]-methyl-amino]-N-methyl-propanamide], the figures for the IC50 in test [1] and in test [2] were 34.4 nM and 107 nM, respectively.

Turning to `CN(CP(C)(C)=O)c1cc(N2CCC(C)(C(N)=O)CC2)n2nc(-c3ccccc3Cl)c(-c3ccc(Cl)cc3)c2n1` [Compound 40, 1-[2-(2-chlorophenyl)-3-(4-chlorophenyl)-5-[dimethylphosphorylmethyl (methyl)amino]pyrazolo[1,5-a]pyrimidin-7-yl]-4-methyl-piperidine-4-carboxamide], the figures for the IC50 in test [1] and in test [2] were 17.3 nM and 112 nM, respectively.

As to `CNC(=O)CCN(C)c1cc(N2CCC[C@@H](C(N)=O)C2)n2nc(-c3ccccc3Cl)c(-c3ccc(Cl)cc3)c2n1` [Compound 41, (3R)-1-[2-(2-chlorophenyl)-3-(4-chlorophenyl)-5-[methyl-[3-(methylamino)-3-oxo-propyl]amino]pyrazolo[1,5-a]pyrimidin-7-yl]piperidine-3-carboxamide], the IC50 is 93 nM in test [1] and 161 nM in test [2].

Usually IC50 stands for the point on the concentration scale where inhibition reaches its midpoint.

For the origin of these results see patent US20250145628A1, “PYRAZOLOPYRIMIDINES, COMPOSITIONS COMPRISING THEM AND USES THEREOF” (Novo Nordisk A/S, priority 2022, published 2025).
